How the values were obtained:
[1] = system: BH3/Bcl-xL binding; experiment: SELDI binding assay, unlabeled Bak BH3 peptide on immobilized Bcl-xL-His6
Text: To test the possibility that BH3Is target the OREGON GREEN moiety of the fluorescently labeled BH3 peptide, a novel BH3/Bcl-xL binding assay using unlabeled BH3 peptide was designed. In this assay Bcl-xL was covalently attached to a surface-enhanced laser desorption/ionization (SELDI) chip, and binding of the unlabelled BH3 peptide to the immobilized protein was monitored by mass spectrometry. Specifically, purified recombinant GST-Bcl-2 and BCL-xL-His6 were coupled through their primary amines to SELDI chip surfaces derivatized with carbonyldiimidazole (Ciphergen). Bak BH3 peptide was then added (in a total volume of 1 μl) for 12 hours at 4° C. in a humidified chamber, to allow binding to each spot of the SELDI chip. The chip was then washed with alternating high and low pH-0.1M sodium acetate with 0.5M NaCl, followed by 0.01M HEPES; pH 7.3. The samples were embedded in α-cyanno-4-hydroxycinnamaic acid matrix and analyzed for mass by MALDI TOF. An average of 100 laser shots at a constant setting were collected over 20 spots in each sample.

[2] = target: T1, Bcl-xL (Homo sapiens, UniProt Q07817, DEL45-84); experiment: Bcl-xL pore formation, carboxyfluorescein release from liposomes; format: biochemical; conditions: 5 μM Bcl-xL-His6, pH 4.0
T1 construct: His6 (C); made in house
T1 sequence (Q07817 with tags, fused parts or gaps DEL45-84 limits assumed): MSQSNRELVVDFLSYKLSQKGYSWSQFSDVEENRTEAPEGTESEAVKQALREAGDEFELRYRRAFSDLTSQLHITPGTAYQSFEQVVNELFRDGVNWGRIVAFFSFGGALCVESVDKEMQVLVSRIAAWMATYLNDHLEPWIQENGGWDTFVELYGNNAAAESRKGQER
Protocol: Bcl-xL forms membrane pores, and the formation of these pores may play a role in Bcl-xL's ability to regulate apoptosis. Thus, the effects of the BH3Is on pore formation by Bcl-xL were tested (Minn, et al., Nature 385:353-7, 1997; Schendel et al., Proc. Natl. Acad. Sci. USA 94:5113-8, 1997; Minn et al., EMBO J. 18:632-43,1999; and Matsuyama et al., J. Biol. Chem. 273:30995-1001, 1998). Liposomes containing 20 mM of 5,6-carboxyfluorescein were prepared as previously described (Antonsson, et al., Science 277:370-2,1997). For Bcl-xL pore formation 5 μM Bcl-xL-His6 was preincubated with BH3I-2 or Bak BH3 peptide in 50 μl of 5 mM sodium citrate, 150 mM NaCl, pH 4.0 buffer for 10 min at 25° C., followed by addition of 5 μl of undiluted liposomes. Prior to determination of the fluorescence pH was adjusted by adding 10 μl of 1.5 M Tris-HCl, pH 7.5.

Bcl-xL-mediated release of carboxyfluorescein from liposomes [2]: Neither BH3Is nor BH3 peptide affected
Sequence: KGGGQVGRQLAIIGDDINR (SEQ ID NO: 2) (BAK) [BH3 peptide, nineteen amino acid Bak peptide corresponding to the BH3 domain of Bak, reference compound]
binding of BH3 peptide to Bcl-xL-modified surface [1]: bound to the Bcl-xL-modified surface in a dose-dependent fashion
